Laboratory results reported in PMC9713320, “Study of the anticancer effect of new quinazolinone hydrazine derivatives as receptor tyrosine kinase inhibitors” (Frontiers in Chemistry, 2022).
Values belong to the molecule of their own block, whether it stands above or below them.

Experiments:
U-87MG = assay: cells; design: MTT antiproliferative assay, absorbance at 570 nm, monolayer cancer cells; conditions: Homo sapiens, 72 h, MTT, read-out: IC50 (µM) / Mean ± SEM / U-87MG
Source text: (§1) MTT (3-(4,5-dimethylthiazol-2-yl)-2,5-diphenyltetrazolium bromide) assay was applied to evaluate the antiproliferative effects of synthetic compounds against cancer and normal cell lines as previously described ([Damghani et al., 2021]). The MTT assay is based on the reduction function of NAD(P)H-dependent cellular oxidoreductase enzymes on yellow tetrazolium dye MTT to its insoluble formazan, which has a purple color and reflects the number of viable cells. Cancer and non-cancer cells were seeded in 96-well flat bottom plates at different densities of 1.5 × 10^4 (HT-29), 3 × 10^4 (A549 and U-87MG), 4 × 10^4 (EBC-1). Synthetic compounds were first dissolved in DMSO and then diluted in growth medium. After 24 h the attached cells were exposed to 100 µL of 3-4 different concentrations of synthesized derivatives in triplicate manner and incubated for an additional 72 h at 37°C. In addition, 3–4 different concentrations of reference compounds were added to wells. To perform the MTT assay the media was discarded from each well and MTT solution in phosphate-buffered saline at a concentration of 0.5 mg/ml was added to all wells. Then, plates were incubated at 37°C for 4 h to allow formation of formazan crystals. Afterwards, crystals were dissolved in 200 μL DMSO, shake on an orbital shaker for 30 min and absorbance was measured at a wavelength of 570 nm with background correction at 650 nm using a Bio-Tek microplate reader (Model Synergy HTX). Finally, IC50 values for each compound was calculated with CurveExpert software version 1.4 for windows. Each experiment was repeated 3–5 times. EBC-1 (human lung adenocarcinoma cells) were obtained from Japanese Collection of Research Bio Resources Cell Bank (JCRB). A549 (human lung adenocarcinoma cells), HT-29 (Human colorectal adenocarcinoma cells) and U-87MG (human primary glioblastoma cells) were obtained from Iranian Biological Resource Centre, Tehran, Iran. EBC-1 cells were cultured in RPMI 1640 medium containing 10% heat-inactivated fetal bovine serum (FBS) and 1% penicillin/streptomycin. A549, HT-29 and U-87MG cells were grown in DMEM low glucose, containing 10% heat-inactivated FBS and 1% penicillin/streptomycin. All cells were grown in monolayer culture at 37°C in a humidified incubator with 5% CO2. We employed the MTT assay in order to investigate the antiproliferative effects of the synthetic compounds against four different cancer cell lines, including lung cancer cell lines EBC-1 (with MET amplification) and A549, the human colorectal cancer cells HT-29, as well as the human glioblastoma cell line U-87MG.

HT-29 = assay: cells; design: MTT antiproliferative assay, absorbance at 570 nm, monolayer cancer cells; conditions: Homo sapiens, 72 h, MTT, read-out: IC50 (µM) / Mean ± SEM / HT29
Source text: as §1

EBC-1 = assay: cells; design: MTT antiproliferative assay, absorbance at 570 nm, monolayer cancer cells; conditions: Homo sapiens, 72 h, MTT, read-out: IC50 (µM) / Mean ± SEM / EBC-1
Source text: as §1

A549 = assay: cells; design: MTT antiproliferative assay, absorbance at 570 nm, monolayer cancer cells; conditions: Homo sapiens, 72 h, MTT, read-out: IC50 (µM) / Mean ± SEM / A549
Source text: as §1

FLT4 (VEGFR3) = FLT4 (VEGFR3) (Homo sapiens, UniProt P35916); assay: radiometric kinase assay (Eurofins), concentration-effect curve; format: biochemical
FLT1 (VEGFR1) = FLT1 (VEGFR1) (Homo sapiens, UniProt P17948); assay: radiometric kinase panel, % inhibition at […]; format: biochemical
19) NTRK1 (TRKA) (h) = 19) NTRK1 (TRKA) (h) (Homo sapiens, UniProt P04629); assay: biochemical; design: Radiometric kinase activity assay, percent inhibition, Eurofins Cerep; conditions: read-out: Kinase inhibition (%) ^a / 10 µM / −4
Protocol: (§2) Kinase inhibition profile was examined by Kinase Radiometric Assays for 18 different oncogenic kinases (Eurofins Cerep, Celle l'Evescault, France). In order to investigate the activity of compound CM9, as the most promising agent in this series, against other oncogenic kinases, we further assessed this derivative against a panel of 18 other protein kinases using a radiometric assay at the concentrations of 10 and/or 25 μM (Table 4).

16) RET(h) = 16) RET(h) (Homo sapiens, UniProt P07949); assay: biochemical; design: Radiometric kinase activity assay, percent inhibition, Eurofins Cerep; conditions: read-out: Kinase inhibition (%) ^a / 10 µM / −4
Protocol: as §2

5) EGFR(h) = 5) EGFR(h) (Homo sapiens, UniProt P00533); assay: biochemical; design: Radiometric kinase activity assay, percent inhibition, Eurofins Cerep; conditions: read-out: Kinase inhibition (%) ^a / 10 µM
Protocol: as §2

17) MST1R (RON) (h) = 17) MST1R (RON) (h) (Homo sapiens, UniProt Q04912); assay: biochemical; design: Radiometric kinase activity assay, percent inhibition, Eurofins Cerep; conditions: read-out: Kinase inhibition (%) ^a / 10 µM / −4
Protocol: as §2

14) PDGFRA (PDGFRα) (h) = 14) PDGFRA (PDGFRα) (h) (Homo sapiens, UniProt P16234); assay: biochemical; design: Radiometric kinase activity assay, percent inhibition, Eurofins Cerep; conditions: read-out: Kinase inhibition (%) ^a / 10 µM / −4
Protocol: as §2

11) MAPK3 (ERK1) (h) = 11) MAPK3 (ERK1) (h) (Homo sapiens, UniProt P27361); assay: biochemical; design: Radiometric kinase activity assay, percent inhibition, Eurofins Cerep; conditions: read-out: Kinase inhibition (%) ^a / 10 µM
Protocol: as §2

4) KIT (c-Kit) (h) = 4) KIT (c-Kit) (h) (Homo sapiens, UniProt P10721); assay: biochemical; design: Radiometric kinase activity assay, percent inhibition, Eurofins Cerep; conditions: read-out: Kinase inhibition (%) ^a / 10 µM
Protocol: as §2

2) ALK(h) = 2) ALK(h) (Homo sapiens, UniProt Q9UM73); assay: biochemical; design: Radiometric kinase activity assay, percent inhibition, Eurofins Cerep; conditions: read-out: Kinase inhibition (%) ^a / 10 µM
Protocol: as §2

1) ABL1(h) = 1) ABL1(h) (Homo sapiens, UniProt P00519); assay: biochemical; design: Radiometric kinase activity assay, percent inhibition, Eurofins Cerep; conditions: read-out: Kinase inhibition (%) ^a / 10 µM
Protocol: as §2

10) KDR (VEGFR2) (h) = 10) KDR (VEGFR2) (h) (Homo sapiens, UniProt P35968); assay: biochemical; design: Radiometric kinase activity assay, percent inhibition, Eurofins Cerep; conditions: read-out: Kinase inhibition (%) ^a / 10 µM
Protocol: as §2

13) MET(h) = 13) MET(h) (Homo sapiens, UniProt P08581); assay: biochemical; design: Radiometric kinase activity assay, percent inhibition, Eurofins Cerep
Protocol: as §2

9) FLT4 (VEGFR3) = 9) FLT4 (VEGFR3) (Homo sapiens, UniProt P35916); assay: biochemical; design: Radiometric kinase activity assay, percent inhibition, Eurofins Cerep; conditions: read-out: Kinase inhibition (%) ^a / 10 µM
Protocol: as §2

15) PDGFRB (PDGFRβ) (h) = 15) PDGFRB (PDGFRβ) (h) (Homo sapiens, UniProt P09619); assay: biochemical; design: Radiometric kinase activity assay, percent inhibition, Eurofins Cerep
Protocol: as §2

7) FLT1 (VEGFR1) (h) = 7) FLT1 (VEGFR1) (h) (Homo sapiens, UniProt P17948); assay: biochemical; design: Radiometric kinase activity assay, percent inhibition, Eurofins Cerep; conditions: read-out: Kinase inhibition (%) ^a / 10 µM
Protocol: as §2

MAPK1(m) (ERK2) = MAPK1(m) (ERK2) (Mus musculus, UniProt P63085); assay: biochemical; design: Radiometric kinase activity assay, percent inhibition, Eurofins Cerep; conditions: read-out: Kinase inhibition (%) ^a / 10 µM / −4
Protocol: as §2

3) AXL(h) = 3) AXL(h) (Homo sapiens, UniProt P30530); assay: biochemical; design: Radiometric kinase activity assay, percent inhibition, Eurofins Cerep; conditions: read-out: Kinase inhibition (%) ^a / 10 µM
Protocol: as §2

8) FLT3 (h) = 8) FLT3 (h) (Homo sapiens, UniProt P36888); assay: biochemical; design: Radiometric kinase activity assay, percent inhibition, Eurofins Cerep
Protocol: as §2

18) ROS1 = 18) ROS1 (Homo sapiens, UniProt P08922); assay: biochemical; design: Radiometric kinase activity assay, percent inhibition, Eurofins Cerep; conditions: read-out: Kinase inhibition (%) ^a / 10 µM / −4
Protocol: as §2

6) FGFR1(h) = 6) FGFR1(h) (Homo sapiens, UniProt P11362); assay: biochemical; design: Radiometric kinase activity assay, percent inhibition, Eurofins Cerep; conditions: read-out: Kinase inhibition (%) ^a / 10 µM
Protocol: as §2

ALK = ALK (Homo sapiens, UniProt Q9UM73); assay: radiometric kinase panel, % inhibition at […]; format: biochemical
FGFR1 = FGFR1 (Homo sapiens, UniProt P11362); assay: radiometric kinase panel, % inhibition at […]; format: biochemical
MET kinase = MET kinase (Homo sapiens, UniProt P08581); assay: HTRF kinase assay; confirmed by radiometric assay; format: biochemical
AXL = AXL (Homo sapiens, UniProt P30530); assay: radiometric kinase panel, % inhibition at […]; format: biochemical
[1] = read-out: Kinase inhibition (%) ^a / 10 µM / −4
[2] = read-out: Kinase inhibition (%) ^a / 25 µM

Sequence of 8) FLT3 (h) (P36888 whole entry): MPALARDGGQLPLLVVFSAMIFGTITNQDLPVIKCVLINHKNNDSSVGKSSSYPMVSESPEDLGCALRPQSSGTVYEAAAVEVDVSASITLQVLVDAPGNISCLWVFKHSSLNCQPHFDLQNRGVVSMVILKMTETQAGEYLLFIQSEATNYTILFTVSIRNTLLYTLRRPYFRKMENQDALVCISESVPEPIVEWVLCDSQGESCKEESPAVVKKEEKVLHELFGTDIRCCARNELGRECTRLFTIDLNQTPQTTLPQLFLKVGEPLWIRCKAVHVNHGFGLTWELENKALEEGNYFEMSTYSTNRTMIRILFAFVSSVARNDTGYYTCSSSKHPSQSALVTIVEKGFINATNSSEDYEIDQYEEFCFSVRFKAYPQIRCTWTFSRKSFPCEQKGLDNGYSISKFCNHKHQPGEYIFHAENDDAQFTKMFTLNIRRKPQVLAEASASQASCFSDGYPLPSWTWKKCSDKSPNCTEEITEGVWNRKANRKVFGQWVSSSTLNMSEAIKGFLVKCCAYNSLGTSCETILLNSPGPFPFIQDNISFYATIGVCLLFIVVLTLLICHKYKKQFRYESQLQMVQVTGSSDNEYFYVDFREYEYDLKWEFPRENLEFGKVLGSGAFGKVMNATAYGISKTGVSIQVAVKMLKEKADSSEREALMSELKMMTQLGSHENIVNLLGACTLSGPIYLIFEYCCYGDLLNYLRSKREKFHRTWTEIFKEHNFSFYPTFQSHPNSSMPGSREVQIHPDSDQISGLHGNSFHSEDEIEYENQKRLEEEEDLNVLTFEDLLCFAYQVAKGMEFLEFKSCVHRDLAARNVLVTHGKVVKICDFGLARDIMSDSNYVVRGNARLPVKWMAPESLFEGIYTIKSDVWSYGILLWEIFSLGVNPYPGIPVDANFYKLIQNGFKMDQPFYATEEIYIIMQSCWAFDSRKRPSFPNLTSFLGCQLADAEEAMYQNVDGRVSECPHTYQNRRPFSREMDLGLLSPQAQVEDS
Sequence of 15) PDGFRB (PDGFRβ) (h) (P09619 whole entry): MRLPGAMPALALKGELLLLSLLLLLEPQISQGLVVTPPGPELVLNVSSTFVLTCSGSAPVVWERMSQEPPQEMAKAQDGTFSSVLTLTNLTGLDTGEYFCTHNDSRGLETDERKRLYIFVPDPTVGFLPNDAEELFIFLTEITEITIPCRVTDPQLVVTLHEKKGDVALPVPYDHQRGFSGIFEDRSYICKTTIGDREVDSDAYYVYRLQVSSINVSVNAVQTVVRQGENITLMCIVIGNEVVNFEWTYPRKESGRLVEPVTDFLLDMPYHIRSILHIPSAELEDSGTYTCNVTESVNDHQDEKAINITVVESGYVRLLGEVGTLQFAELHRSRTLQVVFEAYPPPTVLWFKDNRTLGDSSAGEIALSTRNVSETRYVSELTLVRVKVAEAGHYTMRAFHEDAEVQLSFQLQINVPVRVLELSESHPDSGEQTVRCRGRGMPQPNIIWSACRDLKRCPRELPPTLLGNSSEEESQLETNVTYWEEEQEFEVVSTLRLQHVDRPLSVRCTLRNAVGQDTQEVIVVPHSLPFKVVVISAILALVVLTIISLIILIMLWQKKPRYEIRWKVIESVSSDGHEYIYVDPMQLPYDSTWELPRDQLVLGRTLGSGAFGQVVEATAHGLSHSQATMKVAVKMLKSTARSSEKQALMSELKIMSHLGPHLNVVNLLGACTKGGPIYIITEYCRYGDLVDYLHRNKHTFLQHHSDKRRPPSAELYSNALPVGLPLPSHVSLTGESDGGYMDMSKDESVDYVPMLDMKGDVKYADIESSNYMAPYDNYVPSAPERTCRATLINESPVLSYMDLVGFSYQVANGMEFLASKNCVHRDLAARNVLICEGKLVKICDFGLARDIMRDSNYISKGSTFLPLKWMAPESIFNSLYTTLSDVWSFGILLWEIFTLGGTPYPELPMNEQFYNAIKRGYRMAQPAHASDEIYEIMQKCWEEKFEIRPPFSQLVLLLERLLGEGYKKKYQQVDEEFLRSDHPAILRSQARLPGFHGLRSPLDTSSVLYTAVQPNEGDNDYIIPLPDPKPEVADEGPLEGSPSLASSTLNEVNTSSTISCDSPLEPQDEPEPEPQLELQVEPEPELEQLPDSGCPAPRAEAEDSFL
Sequence of 13) MET(h) (P08581 whole entry): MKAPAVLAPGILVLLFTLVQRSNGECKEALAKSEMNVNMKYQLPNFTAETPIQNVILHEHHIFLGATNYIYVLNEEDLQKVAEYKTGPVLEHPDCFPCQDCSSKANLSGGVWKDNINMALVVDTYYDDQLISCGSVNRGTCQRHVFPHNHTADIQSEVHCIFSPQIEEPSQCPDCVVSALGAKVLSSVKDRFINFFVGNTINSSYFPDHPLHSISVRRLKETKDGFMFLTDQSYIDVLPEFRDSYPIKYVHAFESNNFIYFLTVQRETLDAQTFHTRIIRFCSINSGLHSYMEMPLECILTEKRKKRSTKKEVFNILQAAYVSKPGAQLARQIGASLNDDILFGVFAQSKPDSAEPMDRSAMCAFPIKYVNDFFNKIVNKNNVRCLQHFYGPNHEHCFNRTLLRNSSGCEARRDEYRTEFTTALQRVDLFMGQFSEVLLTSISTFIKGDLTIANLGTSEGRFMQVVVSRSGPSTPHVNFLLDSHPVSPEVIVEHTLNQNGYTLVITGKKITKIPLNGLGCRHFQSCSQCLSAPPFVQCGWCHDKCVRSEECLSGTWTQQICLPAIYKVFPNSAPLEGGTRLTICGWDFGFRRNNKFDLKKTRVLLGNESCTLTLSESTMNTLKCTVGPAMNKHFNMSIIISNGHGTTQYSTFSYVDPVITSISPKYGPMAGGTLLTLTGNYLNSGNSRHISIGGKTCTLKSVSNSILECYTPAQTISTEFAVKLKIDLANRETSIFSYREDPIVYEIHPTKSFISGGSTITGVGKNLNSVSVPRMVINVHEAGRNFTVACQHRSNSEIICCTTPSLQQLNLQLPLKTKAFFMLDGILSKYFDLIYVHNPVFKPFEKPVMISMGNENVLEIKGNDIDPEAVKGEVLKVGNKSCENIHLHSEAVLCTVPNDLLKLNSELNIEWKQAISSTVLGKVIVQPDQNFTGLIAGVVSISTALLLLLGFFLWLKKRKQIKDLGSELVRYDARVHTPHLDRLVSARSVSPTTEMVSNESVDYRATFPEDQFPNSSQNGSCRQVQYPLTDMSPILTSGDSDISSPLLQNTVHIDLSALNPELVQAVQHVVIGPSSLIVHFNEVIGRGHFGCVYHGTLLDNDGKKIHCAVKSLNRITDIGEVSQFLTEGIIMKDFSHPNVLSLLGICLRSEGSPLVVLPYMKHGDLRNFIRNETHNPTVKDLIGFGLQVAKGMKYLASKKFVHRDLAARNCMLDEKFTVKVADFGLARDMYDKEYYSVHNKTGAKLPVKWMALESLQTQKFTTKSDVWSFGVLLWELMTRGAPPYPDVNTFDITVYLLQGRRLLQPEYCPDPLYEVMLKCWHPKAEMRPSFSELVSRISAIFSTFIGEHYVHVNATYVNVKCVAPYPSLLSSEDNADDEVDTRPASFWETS
Sequence of MAPK1(m) (ERK2) (P63085 whole entry): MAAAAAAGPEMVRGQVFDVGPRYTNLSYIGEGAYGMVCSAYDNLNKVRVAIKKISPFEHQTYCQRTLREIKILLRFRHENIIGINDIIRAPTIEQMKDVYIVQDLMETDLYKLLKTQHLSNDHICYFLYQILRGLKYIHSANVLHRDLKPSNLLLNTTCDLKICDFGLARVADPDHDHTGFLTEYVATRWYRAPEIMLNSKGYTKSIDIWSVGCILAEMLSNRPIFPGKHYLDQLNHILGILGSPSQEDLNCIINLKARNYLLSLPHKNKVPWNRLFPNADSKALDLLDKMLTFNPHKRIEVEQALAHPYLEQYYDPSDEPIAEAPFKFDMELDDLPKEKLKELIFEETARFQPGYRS
Sequence of AXL (P30530 26-894): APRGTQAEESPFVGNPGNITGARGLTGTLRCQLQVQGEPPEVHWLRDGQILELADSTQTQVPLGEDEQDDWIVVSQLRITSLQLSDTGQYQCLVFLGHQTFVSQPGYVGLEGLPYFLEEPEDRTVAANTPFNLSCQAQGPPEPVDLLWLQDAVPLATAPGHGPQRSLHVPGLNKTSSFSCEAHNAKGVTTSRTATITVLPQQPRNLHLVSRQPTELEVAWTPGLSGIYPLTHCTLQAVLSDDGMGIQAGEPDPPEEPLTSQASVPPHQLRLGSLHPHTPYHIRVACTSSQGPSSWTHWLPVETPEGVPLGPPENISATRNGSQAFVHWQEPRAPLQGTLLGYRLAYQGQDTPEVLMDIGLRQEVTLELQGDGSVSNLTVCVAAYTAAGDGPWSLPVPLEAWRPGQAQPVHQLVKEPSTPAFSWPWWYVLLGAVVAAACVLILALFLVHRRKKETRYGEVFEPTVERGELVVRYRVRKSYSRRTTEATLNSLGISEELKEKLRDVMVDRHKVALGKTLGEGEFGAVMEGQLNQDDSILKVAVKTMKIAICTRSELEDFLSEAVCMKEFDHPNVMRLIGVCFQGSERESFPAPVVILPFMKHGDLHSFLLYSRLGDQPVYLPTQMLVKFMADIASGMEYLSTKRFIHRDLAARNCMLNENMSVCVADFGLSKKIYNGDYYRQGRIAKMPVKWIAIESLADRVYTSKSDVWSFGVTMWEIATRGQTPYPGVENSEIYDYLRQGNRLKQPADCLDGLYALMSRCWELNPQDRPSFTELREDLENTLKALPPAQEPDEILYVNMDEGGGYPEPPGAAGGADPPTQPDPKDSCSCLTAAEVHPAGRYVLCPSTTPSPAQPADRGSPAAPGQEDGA
Sequence of 11) MAPK3 (ERK1) (h) (P27361 whole entry): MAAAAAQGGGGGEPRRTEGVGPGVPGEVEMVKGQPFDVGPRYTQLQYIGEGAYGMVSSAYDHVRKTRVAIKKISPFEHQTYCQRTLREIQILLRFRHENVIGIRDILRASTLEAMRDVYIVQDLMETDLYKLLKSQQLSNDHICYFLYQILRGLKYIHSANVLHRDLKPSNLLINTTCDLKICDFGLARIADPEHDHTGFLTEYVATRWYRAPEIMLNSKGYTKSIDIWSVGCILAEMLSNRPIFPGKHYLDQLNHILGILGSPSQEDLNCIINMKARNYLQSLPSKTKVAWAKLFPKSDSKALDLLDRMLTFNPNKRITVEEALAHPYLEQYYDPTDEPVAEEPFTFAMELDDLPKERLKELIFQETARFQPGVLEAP

IC50 (U-87MG): > 100 µM
IC50 (HT-29): > 100 µM
IC50 (A549): > 100 µM
Structure (SMILES): Cn1c(N/N=C/c2ccc(OCc3cn(Cc4ccc([N+](=O)[O-])cc4)nn3)cc2)nc2ccccc2c1=O [CM1]
IC50 (EBC-1): > 100 µM

IC50 (U-87MG): > 100 µM
IC50 (HT-29): > 100 µM
IC50 (A549): > 100 µM
Structure (SMILES): Cc1ccc(Cn2cc(COc3ccc(/C=N/Nc4nc5ccccc5c(=O)n4C)cc3)nn2)cc1 [CM2]
IC50 (EBC-1): > 100 µM

IC50 (U-87MG): > 100 µM
IC50 (HT-29): 56.4 ± 14.5 µM
IC50 (A549): > 100 µM
Structure (SMILES): Cn1c(N/N=C/c2ccc(OCc3cn(Cc4ccc(C(C)(C)C)cc4)nn3)cc2)nc2ccccc2c1=O [CM3]
IC50 (EBC-1): > 100 µM

IC50 (U-87MG): 67.1 ± 6.2 µM
IC50 (HT-29): 27.8 ± 5.1 µM
IC50 (A549): > 100 µM
Structure (SMILES): Cn1c(N/N=C/c2ccc(OCc3cn(Cc4ccc(F)cc4)nn3)cc2)nc2ccccc2c1=O [CM4]
IC50 (EBC-1): 36.2 ± 10.8 µM

IC50 (U-87MG): > 100 µM
IC50 (HT-29): > 100 µM
IC50 (A549): > 100 µM
Structure (SMILES): Cn1c(N/N=C/c2ccc(OCc3cn(Cc4ccc(Cl)cc4)nn3)cc2)nc2ccccc2c1=O [CM5]
IC50 (EBC-1): > 100 µM

IC50 (U-87MG): > 100 µM
IC50 (HT-29): > 100 µM
IC50 (A549): > 100 µM
Structure (SMILES): Cn1c(N/N=C/c2ccc(OCc3cn(Cc4ccccc4)nn3)cc2)nc2ccccc2c1=O [CM6]
IC50 (EBC-1): 32.5 ± 6.8 µM

IC50 (U-87MG): 51.1 ± 7.6 µM
IC50 (HT-29): 47.8 ± 6.7 µM
IC50 (A549): 34.5 ± 2.2 µM
Structure (SMILES): Cn1c(N/N=C/c2ccc(OCc3cn(Cc4ccc(Cl)c(Cl)c4)nn3)cc2)nc2ccccc2c1=O [CM8]
IC50 (EBC-1): 22.4 ± 6 µM

Structure (SMILES): Cn1c(N/N=C/c2ccc(OCc3cn(Cc4ccc(Br)cc4)nn3)cc2)nc2ccccc2c1=O [CM9, (E)-2-(2-(4-((1-(4-bromobenzyl)-1H-1,2,3-triazol-4-yl)methoxy)benzylidene)hydrazinyl)-3-methylquinazolin-4(3H)-one]
IC50 (FLT4 (VEGFR3)): 5.01 µM
IC50 (U-87MG): 24.6 ± 2.6 µM
IC50 (HT-29): 65.2 ± 15.4 µM
IC50 (EBC-1): 8.6 ± 1.9 µM
IC50 (A549): 64.9 ± 2.9 µM
inhibition at 25 µM (FLT1 (VEGFR1)): 82%
inhibition at 10 µM (19) NTRK1 (TRKA) (h)): 4%
inhibition at 10 µM (16) RET(h)): -12%
inhibition at 10 µM (5) EGFR(h)): -2%
inhibition at 10 µM (17) MST1R (RON) (h)): 5%
inhibition at 10 µM (14) PDGFRA (PDGFRα) (h)): 5%
inhibition at 10 µM (11) MAPK3 (ERK1) (h)): -4%
inhibition at 10 µM (4) KIT (c-Kit) (h)): 0%
inhibition at 10 µM (2) ALK(h)): 25%
inhibition at 10 µM (1) ABL1(h)): 14%
inhibition at 10 µM (10) KDR (VEGFR2) (h)): 0%
inhibition at 10 µM (13) MET(h); [1]): 27%
inhibition at 25 µM (13) MET(h); [2]): 58%
inhibition at 10 µM (9) FLT4 (VEGFR3)): 86%
inhibition at 10 µM (15) PDGFRB (PDGFRβ) (h); [1]): 23%
inhibition at 25 µM (15) PDGFRB (PDGFRβ) (h); [2]): 10%
inhibition at 10 µM (7) FLT1 (VEGFR1) (h)): 22%
inhibition at 10 µM (MAPK1(m) (ERK2)): 3%
inhibition at 10 µM (3) AXL(h)): 28%
inhibition at 10 µM (8) FLT3 (h); read-out: Kinase inhibition (%) ^a / 10 µM): 24%
inhibition at 25 µM (8) FLT3 (h); [2]): 47%
inhibition at 10 µM (18) ROS1): -25%
inhibition at 10 µM (6) FGFR1(h)): 39%
inhibition at 25 µM (ALK): 51%
inhibition at 25 µM (FGFR1): 66%
IC50 (MET kinase): 22.8 ± 3.9 µM
inhibition at 25 µM (AXL): 65%
